Measurements: US6214537A, “Synthetic peptides and mixtures thereof for detecting HIV antibodies” (Biochem Immunosystems, Inc., priority 1988, dated 2001)
Positions of bridges follow the written chain, without caps; N, C: chain ends. Residues, ends and D or L forms follow the SMILES beside them.

What was measured:
HIV-1 antibodies [1] = assay: ELISA, single peptides identifying HIV-1 positive sera; type: binding, human; settings: ELISA, single peptide
Protocol: According to this test a peptide or a peptide mixture of the present invention is adsorbed onto the wells of a microtiter plate. The wells are then treated with sera to be tested. After washing, anti-human IgG labeled with peroxidase is added to the wells. The determination of the peroxidase is performed with a corresponding substrate, e.g. with o-phenylene diamine. Also in this procedure the peroxidase can be exchanged by another label, e.g. by a radioactive or fluorescence label.
(§1) Each well of the microtiter plate is saturated with 100 μl of a solution containing a peptide or mixture of peptides (5 μg/ml) and left overnight. The wells are emptied and washed twice with a washing buffer (Tris, 0.043M; NaCl, 0.5M;thimerosal, 0.01% w/v; Tween 20, 0.05% v/v; pH 7.4). The wells are then saturated with 0.35 ml of washing buffer for 1 hr. at 37° C. and washed once with the same buffer. Serum samples to be analyzed are diluted with specimen buffer (washing buffer plus casein, 0.05% w/v). The wells are rinsed with washing buffer prior to the addition of the diluted serum sample (0.1 ml). These are left to incubate for 1 hr. at room temperature. The wells are then emptied, washed twice rapidly and then once for two minutes with washing buffer. […] The wells are then emptied and washed twice rapidly with washing buffer and then five times in which the buffer was in contact with the well 2 minutes per washing.
(§2) The substrate solution (3,3', 5,5'-tetramethylbenzidine, 8 mg per ml of DMSO) is diluted with 100 volumes 0.1M citrate-acetate buffer, pH 5.6 containing 0.1% v/v of 30% H2 O2 and added to each well (0.1 ml per well). After 10 minutes the contents of each well is treated with 0.1 ml 2N H2 SO4 and the optical density read at 450 nm. All determinations are done in duplicate.

HIV-1-antibodies = assay: ELISA, cyclic versus non-cyclic peptides, sera at various dilutions; type: binding, human
Protocol: TABLE 5 is provided to illustrate the sensitivity of cyclic versus noncyclic peptides in the ELISA test by comparing the results of some sera at various dilutions.
(§3) Plates used in this experiment were coated with solutions of peptides at 10 μg/ml. (Experimental results of TABLE 5 were obtained with plates coated with peptides at 0,5 μg/ml). Four different HIV-1 positive serum samples were serially diluted and their titers determined. The titer was defined as the serum dilution giving an absorbancy reading of 1:0 in the conditions of the ELISA procedure already described.
as §1, §2

[2] = test system: antibodies specific to HIV-1; assay: ELISA serum titers, plates coated with cyclic 87c versus linear 87; type: binding, human
Text: (§4) Even though results presented in TABLE 5 clearly show the superiority of cyclic peptides over their linear counterpart in detecting HIV-1-antibodies, that increased sensitivity could have been underestimated because of probable cyclization and polymerization of the linear peptide after solubilization in a carbonate buffer (pH 9.6). That experiment was repeated with the linear 87 and cyclic 87c peptides dissolved in a carbonate buffer (pH 9.6) as before and also in 10% acetic acid (pH 2.7). […] It is believed that cydization and polymerization also occured in the wells of the microtiter plates although the exact proportion of cyclic peptide bound to the plates versus linear has not been as yet determined.
as §3
The ratios of sensitivities measured with the cyclic peptide over the linear 87 peptide vary between 1:3 and 2:2 with an average of 1:8. These ratios are even larger, varying from 3:0 to 4:5, when the sensitivity of the ELISA test using the cyclic 87c peptide is compared using conditions (acidic pH) where the linear 87 peptide remains linear and is not allowed to cyclize or polymerize.

HIV-1 antibodies [3] = assay: ELISA plates coated with cyclic 87c versus linear 87 or polymers of 87: sensitivity and background; type: binding, human
[4] = State of peptide in coating solution (HPLC, Ellman's test); type: physicochemical; settings: 10% acetic acid (pH 2.7)
Text: as §4

With CC[C@H](C)[C@H](NC(=O)CNC(=O)[C@H](CC(C)C)NC(=O)[C@H](CC(C)C)NC(=O)[C@H](CCC(N)=O)NC(=O)[C@H](CCC(N)=O)NC(=O)[C@H](CC(=O)O)NC(=O)[C@H](CCCCN)NC(=O)[C@H](CC(C)C)NC(=O)[C@H](Cc1ccc(O)cc1)NC(=O)[C@H](CCCNC(=N)N)NC(=O)[C@H](CCC(=O)O)NC(=O)[C@@H](NC(=O)[C@H](C)NC(=O)[C@H](CC(C)C)NC(=O)[C@@H](NC(=O)[C@@H](N)CCCNC(=N)N)[C@@H](C)CC)C(C)C)C(=O)N[C@@H](Cc1c[nH]c2ccccc12)C(=O)NCC(=O)N[C@H]1CSSC[C@@H](C(=O)N[C@H](C(=O)N[C@H](C(=O)N[C@@H](C)C(=O)N[C@H](C(=O)N2CCC[C@H]2C(=O)N[C@@H](Cc2c[nH]c3ccccc23)C(=O)N[C@@H](CC(N)=O)C(=O)N[C@@H](C)C(=O)N[C@@H](CO)C(=O)O)C(C)C)[C@@H](C)O)[C@@H](C)O)NC(=O)[C@H]([C@@H](C)CC)NC(=O)[C@H](CC(C)C)NC(=O)[C@H](CCCCN)NC(=O)CNC(=O)[C@H](CO)NC1=O [Peptide 87c] (H-RILAVERYLKDQQLLGIWGCSGKLICTTAVPWNAS-OH; disulfide 20-26) the “% Positive Sera correctly Identified” value (HIV-1 antibodies [1]) was 99%, the ELISA optical density (HIV-1-antibodies; serum 87V103, dilution 1/50) was 0.011 optical density units and the ELISA optical density (HIV-1-antibodies; serum 1428, dilution 1/50) was over 2.0 optical density units. For the same compound, the ELISA optical density (HIV-1-antibodies; serum M-5, dilution 1/50) was over 2.0 optical density units, the ELISA optical density (HIV-1-antibodies; serum M-5, dilution 1/100) was over 2.0 optical density units and the ELISA optical density (HIV-1-antibodies; serum M-5, dilution 1/200) was over 2.0 optical density units. For the same compound, the ELISA optical density (HIV-1-antibodies; serum M-5, dilution 1/400) was over 2.0 optical density units, the ELISA optical density (HIV-1-antibodies; serum M-5, dilution 1/800) was 1.854 optical density units and the ELISA optical density (HIV-1-antibodies; serum M-7, dilution 1/50) was over 2.0 optical density units. The ELISA optical density (HIV-1-antibodies; serum M-7, dilution 1/100) was over 2.0 optical density units, the ELISA optical density (HIV-1-antibodies; serum M-7, dilution 1/200) was 1.729 optical density units and the ELISA optical density (HIV-1-antibodies; serum M-7, dilution 1/400) was 1.348 optical density units. The ELISA optical density (HIV-1-antibodies; serum M-7, dilution 1/800) was 0.611 optical density units, the ELISA optical density (HIV-1-antibodies; serum M-8, dilution 1/50) was over 2.0 optical density units and the ELISA optical density (HIV-1-antibodies; serum M-8, dilution 1/100) was over 2.0 optical density units. The ELISA optical density (HIV-1-antibodies; serum M-8, dilution 1/200) was 1.655 optical density units, the ELISA optical density (HIV-1-antibodies; serum M-8, dilution 1/400) was 1.064 optical density units and the ELISA optical density (HIV-1-antibodies; serum M-8, dilution 1/800) was 0.384 optical density units. The ELISA optical density (HIV-1-antibodies; serum M-16, dilution 1/50) was over 2.0 optical density units, the ELISA optical density (HIV-1-antibodies; serum M-16, dilution 1/100) was over 2.0 optical density units and the ELISA optical density (HIV-1-antibodies; serum M-16, dilution 1/200) was over 2.0 optical density units. For the same compound, the ELISA optical density (HIV-1-antibodies; serum M-16, dilution 1/400) was over 2.0 optical density units, the ELISA optical density (HIV-1-antibodies; serum M-16, dilution 1/800) was 1.962 optical density units and the “titer ratio A/B (87c cyclic / 87 linear)” value ([2]; 10% Acetic Acid (pH 2.7), serum M-5) was 3.0. For the same compound, the “titer ratio A/B (87c cyclic / 87 linear)” value ([2]; 10% Acetic Acid (pH 2.7), serum M-7) was 3.9, the “titer ratio A/B (87c cyclic / 87 linear)” value ([2]; 10% Acetic Acid (pH 2.7), serum M-8) was 4.5 and the “titer ratio A/B (87c cyclic / 87 linear)” value ([2]; 10% Acetic Acid (pH 2.7), serum M-16) was 3.7. The “titer ratio A/B (87c cyclic / 87 linear)” value ([2]; Carbonate Bicarbonate 0.1M (pH 9.6), serum M-5) was 1.3, the “titer ratio A/B (87c cyclic / 87 linear)” value ([2]; Carbonate Bicarbonate 0.1M (pH 9.6), serum M-7) was 1.8 and the “titer ratio A/B (87c cyclic / 87 linear)” value ([2]; Carbonate Bicarbonate 0.1M (pH 9.6), serum M-8) was 2.2. The “titer ratio A/B (87c cyclic / 87 linear)” value ([2]; Carbonate Bicarbonate 0.1M (pH 9.6), serum M-16) was 1.7, the serum titer ([2]; coating buffer 10% Acetic Acid (pH 2.7), serum M-5, coated at 10 μg/ml) was 13500 and the serum titer ([2]; coating buffer 10% Acetic Acid (pH 2.7), serum M-7, coated at 10 μg/ml) was 9000. For the same compound, the serum titer ([2]; coating buffer 10% Acetic Acid (pH 2.7), serum M-8, coated at 10 μg/ml) was 6300, the serum titer ([2]; coating buffer 10% Acetic Acid (pH 2.7), serum M-16, coated at 10 μg/ml) was 56000 and the serum titer ([2]; coating buffer Carbonate Bicarbonate 0.1M (pH 9.6), serum M-5, coated at 10 μg/ml) was 13500. For the same compound, the serum titer ([2]; coating buffer Carbonate Bicarbonate 0.1M (pH 9.6), serum M-7, coated at 10 μg/ml) was 11000, the serum titer ([2]; coating buffer Carbonate Bicarbonate 0.1M (pH 9.6), serum M-8, coated at 10 μg/ml) was 6500 and the serum titer ([2]; coating buffer Carbonate Bicarbonate 0.1M (pH 9.6), serum M-16, coated at 10 μg/ml) was 56000. The “sensitivity in detecting HIV-1 antibodies compared with plates coated with pool of fractions containing only polymers of peptide 87” value (HIV-1 antibodies [3]) was “superiority” and the “state of peptide in solution (HPLC, Ellman's test)” value [4] was “remained cyclic”.
